These results are taken from patent publication US20150374676A1, “HELICASE-PRIMASE INHIBITORS FOR USE IN A METHOD OF TREATING ALZHEIMER'S DISEASE” (AICURIS GMBH & CO. KG, priority 2013, published 2015).

This data set is described as follows: effect of food intake on pharmacokinetics. The data set is classed as in vivo. Particulars: human blood plasma. The text has this:
Further, in accordance with the invention the person skilled in the art understands that food intake prior to administration of the crystalline mono mesylate monohydrate salt of N-[5-(aminosulfonyl)-4-methyl-1,3-thiazol-2-yl]-N-methyl-2-[4-(2-pyridinyl)phenyl]-acetamide of a subject may influence positively the in vivo PK/PD profile of the resultant free base of N-[5-(aminosulfonyl)-4-methyl-1,3-thiazol-2-yl]-N-methyl-2-[4-(2-pyridinyl)phenyl]-acetamide. Thus, in accordance with the invention a decreased absorption rate and a delayed tmax of the resultant free base of N-[5-(aminosulfonyl)-4-methyl-1,3-thiazol-2-yl]-N-methyl-2-[4-(2-pyridinyl)phenyl]-acetamide may be expected in […] subjects after administration of crystalline mono mesylate monohydrate salt of N-[5-(aminosulfonyl)-4-methyl-1,3-thiazol-2-yl]-N-methyl-2-[4-(2-pyridinyl)phenyl]-acetamide.

On to `CS(=O)(=O)O.Cc1nc(N(C)C(=O)Cc2ccc(-c3ccccn3)cc2)sc1S(N)(=O)=O` [mono mesylate monohydrate salt, N-[5-(aminosulfonyl)-4-methyl-1,3-thiazol-2-yl]-N-methyl-2-[4-(2-pyridinyl)-phenyl]acetamide mono methanesulfonic acid monohydrate], for which the “t1/2z with food intake prior to administration” value is listed as “remains constant”. For the same molecule, for the setting “HPLC, worded 'may lead to'”, the “increase in AUC with food intake prior to administration” value is listed as “at least 10%” and the “increase in mean Cmax with food intake prior to administration” value was “at least 25%”.
